Experimental data taken from patent publication US10711004B2 (Genentech, Inc., priority 2018, dated 2020).
Where two headings read alike, the source gives them in different places.

Target: human TRPA1 channel (Homo sapiens (Human), UniProt O75762)
Assay: hTRPA1 CHO Ca2+ FLIPR Tetra assay, block of cinnamaldehyde induced calcium influx
Type: cell-based
Conditions: CHO cells expressing TRPA1, Hill coefficient fixed to 1.5
How it was run: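 IC50 values come from fixed-Hill fits of inhibition of cinnamaldehyde-induced (about EC50 level) calcium influx measured by FLIPR Tetra. Before agonist, TRPA1-expressing CHO cells loaded with calcium indicator were exposed to compound for 10 or 90 min at room temperature in HEPES-buffered HBSS, pH 7.4, with 0.02% BSA.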

[1] = read-out: hTRPA1 IC50 (10 min), compounds incubated 10 minutes at room temperature before cinnamaldehyde agonist
[2] = read-out: hTRPA1 IC50 (90 min), compounds incubated 90 minutes at room temperature before cinnamaldehyde agonist

Chain of human TRPA1 channel (O75762 whole entry): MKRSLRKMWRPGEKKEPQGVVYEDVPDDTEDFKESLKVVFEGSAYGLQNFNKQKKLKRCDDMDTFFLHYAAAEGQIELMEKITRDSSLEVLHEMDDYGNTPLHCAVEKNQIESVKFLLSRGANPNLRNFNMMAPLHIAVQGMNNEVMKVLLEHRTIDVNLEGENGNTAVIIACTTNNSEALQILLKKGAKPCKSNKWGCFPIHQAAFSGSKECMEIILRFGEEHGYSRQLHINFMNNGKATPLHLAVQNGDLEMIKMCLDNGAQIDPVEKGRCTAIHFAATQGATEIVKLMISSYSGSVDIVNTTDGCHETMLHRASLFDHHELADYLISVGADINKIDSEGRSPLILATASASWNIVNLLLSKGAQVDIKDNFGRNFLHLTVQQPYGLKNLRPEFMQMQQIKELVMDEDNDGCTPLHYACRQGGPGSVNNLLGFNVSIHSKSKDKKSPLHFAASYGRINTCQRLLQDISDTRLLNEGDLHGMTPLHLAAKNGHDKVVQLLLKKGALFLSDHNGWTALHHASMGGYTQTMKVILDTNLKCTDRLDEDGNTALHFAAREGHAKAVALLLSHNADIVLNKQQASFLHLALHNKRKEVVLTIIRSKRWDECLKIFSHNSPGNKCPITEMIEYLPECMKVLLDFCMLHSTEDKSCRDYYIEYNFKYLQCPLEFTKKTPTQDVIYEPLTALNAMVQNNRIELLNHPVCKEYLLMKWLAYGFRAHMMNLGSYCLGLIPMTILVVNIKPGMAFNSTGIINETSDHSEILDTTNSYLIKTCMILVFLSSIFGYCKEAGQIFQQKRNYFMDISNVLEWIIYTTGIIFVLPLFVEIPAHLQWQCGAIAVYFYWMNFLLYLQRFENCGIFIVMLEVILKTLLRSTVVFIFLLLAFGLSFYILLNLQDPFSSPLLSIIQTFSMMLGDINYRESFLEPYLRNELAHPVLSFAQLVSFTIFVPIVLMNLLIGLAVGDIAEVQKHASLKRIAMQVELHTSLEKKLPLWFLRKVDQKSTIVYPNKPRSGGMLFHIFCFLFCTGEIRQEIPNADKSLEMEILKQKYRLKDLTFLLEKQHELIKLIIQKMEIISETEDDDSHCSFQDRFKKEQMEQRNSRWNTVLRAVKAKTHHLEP

SMILES	IC50 [1] [nM]	IC50 [2] [nM]
COc1ccc(C2=C[C@H]3[C@@H](C2)[C@@H]3c2noc(Cn3cnc4ncn(C)c4c3=O)n2)cc1 [Example Compound 119, 1-((3-((1R,5R,6S)-3-(4-methoxyphenyl)bicyclo[3.1.0]hex-2-en-6-yl)-1,2,4-oxadiazol-5-yl)methyl)-7-methyl-1,7-dihydro-6H-purin-6-one]	26.6	16
Cn1cnc2ncn(Cc3nc([C@H]4[C@@H]5CN(c6cc7ccccc7cn6)C[C@@H]54)no3)c(=O)c21 [Example Compound 120, 1-((3-((1R,5S,6r)-3-(isoquinolin-3-yl)-3-azabicyclo[3.1.0]hexan-6-yl)-1,2,4-oxadiazol-5-yl)methyl)-7-methyl-1,7-dihydro-6H-purin-6-one]	90.8	81
Cn1cnc2ncn(Cc3nc([C@H]4[C@@H]5C=C(c6ccc(F)cc6)C[C@@H]54)no3)c(=O)c21 [Example Compound 125, 1-((3-((1S,5S,6R)-3-(4-fluorophenyl)bicyclo[3.1.0]hex-2-en-6-yl)-1,2,4-oxadiazol-5-yl)methyl)-7-methyl-1,7-dihydro-6H-purin-6-one]	7.48	3
Cn1cnc2ncn(Cc3nc([C@H]4[C@@H]5C=C(c6ccncc6)C[C@@H]54)no3)c(=O)c21 [Example Compound 126, 7-methyl-1-((3-((1S,5S,6R)-3-(pyridin-4-yl)bicyclo[3.1.0]hex-2-en-6-yl)-1,2,4-oxadiazol-5-yl)methyl)-1,7-dihydro-6H-purin-6-one]	189	96
Cn1nnc2ncn(Cc3nc([C@H]4[C@@H]5CN(c6cc(Cl)ccn6)C[C@@H]54)no3)c(=O)c21 [Example Compound 130, 6-((3-((1R,5S,6r)-3-(4-chloropyridin-2-yl)-3-azabicyclo[3.1.0]hexan-6-yl)-1,2,4-oxadiazol-5-yl)methyl)-1-methyl-1,6-dihydro-7H-[1,2,3]triazolo[4,5-d]pyrimidin-7-one]	74.5	44
Cn1cnc2ncn(Cc3nc([C@H]4[C@@H]5CN(c6ccncc6F)C[C@@H]54)no3)c(=O)c21 [Example Compound 131, 1-((3-((1R,5S,6r)-3-(3-fluoropyridin-4-yl)-3-azabicyclo[3.1.0]hexan-6-yl)-1,2,4-oxadiazol-5-yl)methyl)-7-methyl-1,7-dihydro-6H-purin-6-one]	383	110
Cn1cnc2ncn(Cc3nc([C@H]4[C@@H]5C=C(c6ccc7ccncc7c6)C[C@@H]54)no3)c(=O)c21 [Example Compound 135, 1-((3-((1S,5S,6R)-3-(isoquinolin-7-yl)bicyclo[3.1.0]hex-2-en-6-yl)-1,2,4-oxadiazol-5-yl)methyl)-7-methyl-1,7-dihydro-6H-purin-6-one]	58.7	48
Cn1cnc2ncn(Cc3nc([C@H]4[C@@H]5CN(c6ccc7c(c6)CCCC7)C[C@@H]54)no3)c(=O)c21 [Example Compound 136]	685	–
Cc1nn(C)c2ncn(Cc3nc([C@H]4[C@@H]5CN(c6cc(Cl)ccn6)C[C@@H]54)no3)c(=O)c12 [Example Compound 137, 5-((3-((1R,5S,6r)-3-(4-chloropyridin-2-yl)-3-azabicyclo[3.1.0]hexan-6-yl)-1,2,4-oxadiazol-5-yl)methyl)-1,3-dimethyl-1,5-dihydro-4H-pyrazolo[3,4-d]pyrimidin-4-one]	58.5	43
Cc1cnn2ncn(Cc3nc([C@H]4[C@@H]5CN(c6cc(Cl)ccn6)C[C@@H]54)no3)c(=O)c12 [Example Compound 138, 3-((3-((1R,5S,6r)-3-(4-chloropyridin-2-yl)-3-azabicyclo[3.1.0]hexan-6-yl)-1,2,4-oxadiazol-5-yl)methyl)-5-methylpyrazolo[5,1-f][1,2,4]triazin-4(3H)-one]	15.1	5.5
Cn1nnc2ncn(Cc3nc([C@H]4[C@@H]5CN(c6cccc(Cl)c6)C[C@@H]54)no3)c(=O)c21 [Example Compound 139, 6-((3-((1R,5S,6r)-3-(3-chlorophenyl)-3-azabicyclo[3.1.0]hexan-6-yl)-1,2,4-oxadiazol-5-yl)methyl)-1-methyl-1,6-dihydro-7H-[1,2,3]triazolo[4,5-d]pyrimidin-7-one]	10.6	3.6

The remaining molecules from weak to strong by IC50 [1], led by results:

IC50 [1] [nM]	IC50 [2] [nM]	SMILES
348	440	Cn1cnc2ncn(Cc3nc([C@@H]4[C@H]5C=C(c6cccnc6)C[C@H]54)no3)c(=O)c21 [Example Compound 134, 7-methyl-1-((3-((1R,5R,6S)-3-(pyridin-3-yl)bicyclo[3.1.0]hex-2-en-6-yl)-1,2,4-oxadiazol-5-yl)methyl)-1,7-dihydro-6H-purin-6-one]
296	360	Cn1cnc2ncn(Cc3nc([C@@H]4[C@H]5C=C(c6ccc(Cl)cn6)C[C@H]54)no3)c(=O)c21 [Example Compound 123, 1-((3-((1R,5R,6S)-3-(5-chloropyridin-2-yl)bicyclo[3.1.0]hex-2-en-6-yl)-1,2,4-oxadiazol-5-yl)methyl)-7-methyl-1,7-dihydro-6H-purin-6-one]
222	170	Cc1ccc(N2C[C@@H]3[C@H](C2)[C@H]3c2noc(Cn3cnc4ncn(C)c4c3=O)n2)nc1 [Example Compound 140, 7-methyl-1-((3-((1R,5S,6r)-3-(5-methylpyridin-2-yl)-3-azabicyclo[3.1.0]hexan-6-yl)-1,2,4-oxadiazol-5-yl)methyl)-1,7-dihydro-6H-purin-6-one]
209	210	Cn1cnc2ncn(Cc3nc([C@H]4[C@@H]5C=C(c6ccccn6)C[C@@H]54)no3)c(=O)c21 [Example Compound 129, 7-methyl-1-((3-((1S,5S,6R)-3-(pyridin-2-yl)bicyclo[3.1.0]hex-2-en-6-yl)-1,2,4-oxadiazol-5-yl)methyl)-1,7-dihydro-6H-purin-6-one]
179	160	Cn1cnc2ncn(Cc3nc([C@H]4[C@@H]5C=C(c6cccnc6)C[C@@H]54)no3)c(=O)c21 [Example Compound 133, 7-methyl-1-((3-((1S,5S,6R)-3-(pyridin-3-yl)bicyclo[3.1.0]hex-2-en-6-yl)-1,2,4-oxadiazol-5-yl)methyl)-1,7-dihydro-6H-purin-6-one]
143	110	Cn1cnc2ncn(Cc3nc([C@H]4[C@@H]5CN(c6ncccc6F)C[C@@H]54)no3)c(=O)c21 [Example Compound 132, 1-((3-((1R,5S,6r)-3-(3-fluoropyridin-2-yl)-3-azabicyclo[3.1.0]hexan-6-yl)-1,2,4-oxadiazol-5-yl)methyl)-7-methyl-1,7-dihydro-6H-purin-6-one]
142	130	Cn1cnc2ncn(Cc3nc([C@H]4[C@@H]5C=C(c6ccc(Cl)cn6)C[C@@H]54)no3)c(=O)c21 [Example Compound 122, 1-((3-((1S,5S,6R)-3-(5-chloropyridin-2-yl)bicyclo[3.1.0]hex-2-en-6-yl)-1,2,4-oxadiazol-5-yl)methyl)-7-methyl-1,7-dihydro-6H-purin-6-one]
129	85	Cn1cnc2ncn(Cc3nc([C@@H]4[C@H]5C=C(c6ccncc6)C[C@H]54)no3)c(=O)c21 [Example Compound 127, 7-methyl-1-((3-((1R,5R,6S)-3-(pyridin-4-yl)bicyclo[3.1.0]hex-2-en-6-yl)-1,2,4-oxadiazol-5-yl)methyl)-1,7-dihydro-6H-purin-6-one]
118	78	Cn1cnc2ncn(Cc3nc([C@@H]4[C@H]5C=C(c6ccccn6)C[C@H]54)no3)c(=O)c21 [Example Compound 128, 7-methyl-1-((3-((1R,5R,6S)-3-(pyridin-2-yl)bicyclo[3.1.0]hex-2-en-6-yl)-1,2,4-oxadiazol-5-yl)methyl)-1,7-dihydro-6H-purin-6-one]
41.8	15	COc1ccc(C2=C[C@@H]3[C@H](C2)[C@H]3c2noc(Cn3cnc4ncn(C)c4c3=O)n2)cc1 [Example Compound 118, 1-((3-((1S,5S,6R)-3-(4-methoxyphenyl)bicyclo[3.1.0]hex-2-en-6-yl)-1,2,4-oxadiazol-5-yl)methyl)-7-methyl-1,7-dihydro-6H-purin-6-one]
16.6	7.6	Cn1cnc2ncn(Cc3nc([C@@H]4[C@H]5C=C(c6ccc7ccncc7c6)C[C@H]54)no3)c(=O)c21 [Example Compound 136, 1-((3-((1R,5R,6S)-3-(isoquinolin-7-yl)bicyclo[3.1.0]hex-2-en-6-yl)-1,2,4-oxadiazol-5-yl)methyl)-7-methyl-1,7-dihydro-6H-purin-6-one]
13.1	22	O=c1c2c(Cl)ccnc2ncn1Cc1nc([C@H]2C[C@](F)(c3ccc(Cl)cc3)C2)no1 [Example Compound 121, 5-chloro-3-((3-((1s,3s)-3-(4-chlorophenyl)-3-fluorocyclobutyl)-1,2,4-oxadiazol-5-yl)methyl)pyrido[2,3-d]pyrimidin-4(3H)-one]
10.9	7.5	Cn1cnc2ncn(Cc3nc([C@@H]4[C@H]5C=C(c6ccc(F)cc6)C[C@H]54)no3)c(=O)c21 [Example Compound 124, 1-((3-((1R,5R,6S)-3-(4-fluorophenyl)bicyclo[3.1.0]hex-2-en-6-yl)-1,2,4-oxadiazol-5-yl)methyl)-7-methyl-1,7-dihydro-6H-purin-6-one]
9.78	5.1	Cn1cnc2ncn(Cc3nc([C@H]4[C@@H]5C=C(c6ccc(Cl)cc6)C[C@@H]54)no3)c(=O)c21 [Example Compound 141, 1-((3-((1S,5S,6R)-3-(4-chlorophenyl)bicyclo[3.1.0]hex-2-en-6-yl)-1,2,4-oxadiazol-5-yl)methyl)-7-methyl-1,7-dihydro-6H-purin-6-one]
